{"source": "paper PMC3081638", "about": "(The Journal of neuroscience : the official journal of the …, 2011)", "key": {"nicotinic α4β2 receptor": {"target": "nicotinic α4β2 receptor (Homo sapiens, UniProt P43681)", "settings": "ref Paradiso et al., 2001; cited from earlier work"}, "[1]": {"target": "nicotinic α4β2 receptor, α4 & β2 1:8 (Homo sapiens, UniProt P17787+P43681)", "test": "Agonist activation, two-electrode voltage clamp of Xenopus oocytes", "format": "cell-based", "settings": "response to 1 μM 5I A85380 normalized to the response to 1 mM ACh"}, "[2]": {"target": "nicotinic α4β2 receptor, α4 & β2 8:1 (Homo sapiens, UniProt P17787+P43681)", "test": "Agonist activation, two-electrode voltage clamp of Xenopus oocytes", "format": "cell-based", "settings": "response to 1 μM 5I A85380 normalized to the response to 1 mM ACh"}, "[3]": {"target": "α/β concatemer expressed alone (Homo sapiens, UniProt P17787+P43681)", "test": "Agonist activation, two-electrode voltage clamp of Xenopus oocytes", "format": "cell-based", "settings": "response to 1 μM 5I A85380 normalized to the response to 1 mM ACh"}, "[4]": {"target": "β/α concatemer expressed alone (Homo sapiens, UniProt P17787+P43681)", "test": "Agonist activation, two-electrode voltage clamp of Xenopus oocytes", "format": "cell-based", "settings": "response to 1 μM 5I A85380 normalized to the response to 1 mM ACh"}, "α/β & α4": {"target": "α/β & α4 (Homo sapiens, UniProt P17787+P43681)", "test": "Agonist activation, two-electrode voltage clamp of Xenopus oocytes", "format": "cell-based", "settings": "response to 1 μM 5I A85380 normalized to the response to 1 mM ACh"}, "β/α & α4": {"target": "β/α & α4 (Homo sapiens, UniProt P17787+P43681)", "test": "Agonist activation, two-electrode voltage clamp of Xenopus oocytes", "format": "cell-based", "settings": "response to 1 μM 5I A85380 normalized to the response to 1 mM ACh"}, "α/β & β2": {"target": "α/β & β2 (Homo sapiens, UniProt P17787+P43681)", "test": "Agonist activation, two-electrode voltage clamp of Xenopus oocytes", "format": "cell-based"}, "β/α & β2": {"target": "β/α & β2 (Homo sapiens, UniProt P17787+P43681)", "test": "Agonist activation, two-electrode voltage clamp of Xenopus oocytes", "format": "cell-based"}, "α/β&β2F119Q": {"target": "α/β&β2F119Q (Homo sapiens, UniProt P17787+P43681, F144Q)", "test": "Agonist activation, two-electrode voltage clamp of Xenopus oocytes", "format": "cell-based"}, "β/α&β2F119Q": {"target": "β/α&β2F119Q (Homo sapiens, UniProt P17787+P43681, F144Q)", "test": "Agonist activation, two-electrode voltage clamp of Xenopus oocytes", "format": "cell-based"}, "(α4)2(β3)3": {"test_system": "(α4)2(β3)3", "settings": "(α4)2(β3)3 receptor; ref Zwart et al., 2006; cited from earlier work"}, "[5]": {"test_system": "nicotinic α4β2 receptor, pooled combinations of constructs", "test": "Steroid potentiation, values pooled over combinations of constructs", "format": "cell-based, human", "settings": "for mean potentiation, single copy of WLAGMI: 10 μM 17β-estradiol"}, "αWLAAC with α/β": {"target": "αWLAAC with α/β (Homo sapiens, UniProt P43681)", "format": "cell-based", "settings": "10 μM, Figure 6"}, "β/αWLAAC&β2": {"target": "β/αWLAAC&β2 (Homo sapiens, UniProt P17787+P43681)", "format": "cell-based", "settings": "β/αWLAAC concatemer with free β2; 10 μM; Figure 6"}, "α/β&α-M3-β": {"test_system": "α/β&α-M3-β", "format": "cell-based, human", "settings": "α-M3-β chimera with the α/β concatemer; 10 μM; Figure 6"}, "α/β&β-M3-α": {"target": "α/β&β-M3-α (Homo sapiens, UniProt P17787+P43681, A332P/K336R/P333T/T327R/V337R)", "format": "cell-based", "settings": "β-M3-α chimera (α4 sequence transferred to β2); 10 μM; Figure 6"}}, "data": [{"smiles": "CC12CCC3c4ccc(O)cc4CCC3C1CCC2O", "note": "(single isomer, unassigned) [enantiomer of 17β-estradiol]", "values": [{"measurement": "potentiation of the α4β2 receptor (in words)", "setting": "nicotinic α4β2 receptor", "value": "does not potentiate"}]}, {"smiles": "Ic1cncc(OC[C@@H]2CCN2)c1", "note": "[5I A85380, 5-iodo-3-(2(S)-azetidinylmethoxy) pyridine]", "values": [{"measurement": "5I A85380 response", "setting": "[1]", "value": 1.44}, {"measurement": "5I A85380 response", "setting": "[2]", "value": 0.19}, {"measurement": "5I A85380 response", "setting": "[3]", "value": 0.16}, {"measurement": "5I A85380 response", "setting": "[4]", "value": 0.44}, {"measurement": "5I A85380 response", "setting": "α/β & α4", "value": 0.14}, {"measurement": "5I A85380 response", "setting": "β/α & α4", "value": 0.17}, {"measurement": "EC50", "setting": "α/β & β2", "value": "0.008 ± 0.001", "unit": "µM"}, {"measurement": "5I A85380 response", "setting": "α/β & β2; α/β & β2, response to 1 μM 5I A85380 normalized to the response to 1 mM ACh", "value": 1.84}, {"measurement": "5I A85380 maximal response", "setting": "α/β & β2; α/β concatemer with wild-type β2, normalized to the response to 1 mM ACh", "value": "1.44 ± 0.07", "unit": "fold"}, {"measurement": "EC50", "setting": "β/α & β2", "value": "0.029 ± 0.012", "unit": "µM"}, {"measurement": "5I A85380 response", "setting": "β/α & β2; β/α & β2, response to 1 μM 5I A85380 normalized to the response to 1 mM ACh", "value": 1.59}, {"measurement": "5I A85380 maximal response", "setting": "β/α & β2; β/α concatemer with β2, normalized to the response to 1 mM ACh", "value": "1.44 ± 0.10", "unit": "fold"}, {"measurement": "EC50", "setting": "α/β&β2F119Q", "value": "0.127 ± 0.014", "unit": "µM"}, {"measurement": "5I A85380 maximal response", "setting": "α/β&β2F119Q; α/β concatemer with β2F119Q, normalized to the response to 1 mM ACh", "value": "1.13 ± 0.11", "unit": "fold"}, {"measurement": "EC50", "setting": "β/α&β2F119Q", "value": "0.016 ± 0.001", "unit": "µM"}, {"measurement": "5I A85380 maximal response", "setting": "β/α&β2F119Q; β/α concatemer with β2F119Q, normalized to the response to 1 mM ACh", "value": "1.29 ± 0.04", "unit": "fold"}, {"measurement": "maximal response to 5I A85380 compared with ACh", "setting": "(α4)2(β3)3", "value": "greater than the maximal response to ACh"}]}, {"smiles": "C[C@]12CC[C@@H]3c4ccc(O)cc4CC[C@H]3[C@@H]1CC[C@@H]2O", "note": "[17β-estradiol]", "values": [{"measurement": "average potentiation by 10 μM 17β-estradiol", "setting": "[5]; 0 WLAGMI domains, 10 combinations tested", "value": "0.97 ± 0.02"}, {"measurement": "average potentiation by 10 μM 17β-estradiol", "setting": "[5]; 1 WLAGMI domain, 10 combinations", "value": "2.2 ± 0.2"}, {"measurement": "average potentiation by 10 μM 17β-estradiol", "setting": "[5]; 2 WLAGMI domains, 5 combinations", "value": "2.4 ± 0.4"}, {"measurement": "average potentiation by 10 μM 17β-estradiol", "setting": "[5]; 3 WLAGMI domains, 4 combinations", "value": "3.3 ± 0.2"}, {"measurement": "average potentiation by 10 μM 17β-estradiol", "setting": "[5]; 5 WLAGMI domains, 3 combinations", "value": "3.7 ± 0.3"}, {"measurement": "mean potentiation by 17β-estradiol", "setting": "[5]; 5 cases with no untethered AGMI and 2 or 3 critical tryptophans", "value": "0.94 ± 0.04"}, {"measurement": "mean potentiation, single copy of WLAGMI", "setting": "[5]; WLAGMI on α4 N-terminal constructs, N=2 combinations", "value": "1.6 ± 0.1", "unit": "fold"}, {"measurement": "mean potentiation, single copy of WLAGMI", "setting": "[5]; WLAGMI on β2 N-terminal constructs, N=8 combinations", "value": "2.3 ± 0.3", "unit": "fold"}, {"measurement": "mean potentiation, single copy of WLAGMI", "setting": "[5]; domain on the structural subunit, 4 combinations", "value": "2.4 ± 0.5", "unit": "fold"}, {"measurement": "potentiation by 17β-estradiol (in words)", "setting": "αWLAAC with α/β", "value": "removes potentiation"}, {"measurement": "potentiation by 17β-estradiol (in words)", "setting": "β/αWLAAC&β2", "value": "but not when it is expressed with free β2"}, {"measurement": "potentiation by 17β-estradiol (in words)", "setting": "α/β&α-M3-β", "value": "removes potentiation"}, {"measurement": "potentiation by 17β-estradiol (in words)", "setting": "α/β&β-M3-α", "value": "confers potentiation"}]}]}
